Experimental data reported in patent US9018208B2, “Heterocycles as potassium channel modulators” (Icagen Inc., priority 2007, dated 2015).

These compounds were tested on SH-SY5Y M-currents (KCNQ2, KCNQ3 and KCNQ5) (assay: SH-SY5Y native cell line FLIPR assay (voltage-sensitive dye DiBAC)). Settings: FLIPR assay, SH-SY5Y native cell line; Table 1; read-out: SH-SY5Y EC50.
Type: cell-based, mouse neuroblastoma, rat glioma hybrid cell line
Method in brief: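 Response is peak DiBAC fluorescence change, normalised to the maximum from a positive control agent, sampled every 30 s over 25 min. Before compound addition, SH-SY5Y cells differentiated with PGE1 plus isomethylbutylxanthine were dye-loaded for 1 h in EBSS with […] DiBAC.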

Row | SMILES | EC50 [nM]
1 | CC(C)(C)Cc1c(NC(=O)C2CCC(F)(F)CC2)nc2ccccn12 [Compound 87, 4,4-difluoro-N-(3-neopentylimidazo[1,2-a]pyridin-2-yl)cyclohexanecarboxamide] | 500 to 3000
2 | CC(C)(C)CC(=O)Nc1nc2ccc(F)cn2c1Cc1ccc(F)cc1 [Compound 16, N-(6-fluoro-3-(4-fluorobenzyl)imidazo[1,2-a]pyridin-2-yl)-3,3-dimethylbutanamide] | < 500
3 | O=C(Nc1cn2c(C(F)(F)F)cccc2n1)C(F)(F)F [Compound 12, 2,2,2-trifluoro-N-(5-(trifluoromethyl)imidazo[1,2-a]pyridin-2-yl)acetamide] | 3000 to 10000
4 | C[C@@H](CC(=O)Nc1nc2ccc(C(F)(F)F)cn2c1C1CC1)C(F)(F)F [Compound 90, (S)—N-(3-cyclopropyl-6-(trifluoromethyl)imidazo[1,2-a]pyridin-2-yl)-4,4,4-trifluoro-3-methylbutanamide] | 500 to 3000

Now from value to compound:

Row | EC50 [nM] | SMILES
5 | < 500 | O=C(Cc1ccccc1)Nc1nc2ccc(C(F)(F)F)cn2c1C1CCCC1 [Compound 49, N-(3-cyclopentyl-6-(trifluoromethyl)imidazo[1,2-a]pyridin-2-yl)-2-phenyl acetamide]
6 | 500 to 3000 | CC(C)C(C)C(=O)Nc1nc2ccc(F)cn2c1Cc1ccc(C(F)(F)F)cc1 (centres unmarked) [Compound 30, N-(6-fluoro-3-(4-(trifluoromethyl)benzyl)imidazo[1,2-a]pyridin-2-yl)-2,3-dimethylbutanamide]

Same assay, conditions: FLIPR assay, SH-SY5Y native cell line; Table 2; read-out: SH-SY5Y EC50

Row | SMILES | EC50 [nM]
7 | CC(CC(=O)Nc1nc2ncc(Cl)cn2c1-c1ccc(C(F)(F)F)cc1)C(F)(F)F (centres unmarked) [Compound 318, N-(6-chloro-3-(4-(trifluoromethyl)phenyl)imidazo[1,2-a]pyrimidin-2-yl)-4,4,4-trifluoro-3-methylbutanamide] | 500 to 3000
8 | CC(C)C(C)C(=O)Nc1nc2ccc(F)cn2c1-c1ccc(F)cc1 (centres unmarked) [Compound 162, N-(6-fluoro-3(4-fluorophenyl)imidazo[1,2-a]pyridin-2-yl)-2,3-dimethylbutanamide] | 500 to 3000
9 | CC(C)(C)CC(=O)Nc1nc2ncc(F)cn2c1-c1cccc(OC(F)(F)F)c1 [Compound 333, N-(6-fluoro-3-(3-(trifluoromethoxy)phenyl)imidazo[1,2-a]pyrimidin-2-yl)-3,3-dimethylbutanamide] | 500 to 3000
10 | CC(C)C(C)C(=O)Nc1nc2ccc(F)cn2c1-c1cccc(Cl)c1 (centres unmarked) [Compound 314, N-(3-(3-chlorophenyl)-6-fluoroimidazo[1,2-a]pyridin-2-yl)-2,3-dimethylbutanamide] | < 500
11 | CC(C)(C)CC(=O)Nc1nc2cc(Cl)c(Cl)cn2c1-c1ccc(OC(F)(F)F)cc1 [Compound 216, N-(6,7-dichloro-3-(4-(trifluoromethoxy)phenyl)imidazo[1,2-a]pyridin-2-yl)-3,3-dimethylbutanamide] | < 500
12 | COc1ccc2nc(NC(=O)CC(C)(C)C)c(-c3cccc(C(F)(F)F)c3)n2n1 [Compound 339, N-(6-methoxy-3-(3-(trifluoromethyl)phenyl)imidazo[1,2-b]pyridazin-2-yl)-3,3-dimethylbutanamide] | 500 to 3000

Second part, the compound after the results:

Row | EC50 [nM] | SMILES
13 | < 500 | O=C(CC1CCC1)Nc1nc2ccc(F)cn2c1-c1ccc(OC(F)(F)F)cc1 [Compound 194, 2-cyclobutyl-N-(6-fluoro-3-(4-(trifluoromethoxy)phenyl)imidazo[1,2-a]pyridin-2-yl)acetamide]
14 | < 500 | Cc1ccc2nc(NC(=O)Cc3ccccc3)c(-c3ccc(F)cc3)n2c1 [Compound 166, N-(3-(4-fluorophenyl)-6-methylimidazo[1,2-a]pyridin-2-yl)-2-phenylacetamide]
15 | < 500 | O=C(Nc1nc2ccc(F)cn2c1-c1ccc(F)cc1)OCc1ccccc1 [Compound 146, benzyl 6-fluoro-3-(4-fluorophenyl)imidazo[1,2-a]pyridin-2-ylcarbamate]
16 | 3000 to 10000 | O=C(COc1ccccc1)Nc1nc2ccc(F)cn2c1-c1ccc(OC(F)(F)F)cc1 [Compound 231, N-(6-fluoro-3-(4-(trifluoromethoxy)phenyl)imidazo[1,2-a]pyridin-2-yl)-2-phenoxyacetamide]
17 | 500 to 3000 | O=C(Cc1ccccc1)Nc1nc2cc(C(F)(F)F)ccn2c1-c1ccc(F)cc1F [Compound 124, N-(3-(2,4-difluorophenyl)-7-(trifluoromethyl)imidazo[1,2-a]pyridin-2-yl)-2-phenyl acetamide]
18 | 3000 to 10000 | O=C(CC(F)(F)F)Nc1nc2ccc(F)cn2c1-c1ccccc1 [Compound 95, 3,3,3-trifluoro-N-(6-fluoro-3-phenylimidazo[1,2-a]pyridin-2-yl)propanamide]
19 | < 500 | O=C(Cc1ccc(F)cc1)Nc1nc2cc(C(F)(F)F)ccn2c1-c1ccccc1 [Compound 99, 2-(4-fluorophenyl)-N-(3-phenyl-7-(trifluoromethyl)imidazo[1,2-a]pyridin-2-yl)acetamide]
20 | < 500 | CC(C)(C)CC(=O)Nc1nc2ccc(F)cn2c1-c1ccc(F)c(F)c1 [Compound 212, N-(3-(3,4-difluorophenyl)-6-fluoroimidazo[1,2-a]pyridin-2-yl)-3,3-dimethylbutanamide]
21 | 500 to 3000 | O=C(CCC1CC1)Nc1nc2ccc(F)cn2c1-c1ccc(OC(F)(F)F)cc1 [Compound 172, 3-cyclopropyl-N-(6-fluoro-3-(4-(trifluoromethoxy)phenyl)imidazo[1,2-a]pyridin-2-yl)propanamide]
22 | < 500 | O=C(Cc1ccc(F)cc1)Nc1nc2ccc(F)cn2c1-c1cc(F)cc(F)c1 [Compound 229, N-(3-(3,5-difluorophenyl)-6-fluoroimidazo[1,2-a]pyridin-2-yl)-2-(4-fluorophenyl)acetamide]
23 | 500 to 3000 | CC(C)(C)CC(=O)Nc1nc2ccccn2c1-c1cccc(C(F)(F)F)c1 [Compound 336, 3,3-dimethyl-N-(3-(3-(trifluoromethyl)phenyl)imidazo[1,2-a]pyridin-2-yl)butanamide]
24 | < 500 | CC(C)(C)CC(=O)Nc1nc2ccc(F)cn2c1-c1ccc(F)c(C(F)F)c1 [Compound 196, N-(3-(3-(difluoromethyl)-4-fluorophenyl)-6-fluoroimidazo[1,2-a]pyridin-2-yl)-3,3-dimethylbutanamide]
25 | < 500 | O=C(CCC1CC1)Nc1nc2ccc(F)cn2c1-c1cccc(OC(F)(F)F)c1 [Compound 274, 3-cyclopropyl-N-(6-fluoro-3-(3-(trifluoromethoxy)phenyl)imidazo[1,2-a]pyridin-2-yl)propanamide]
26 | 3000 to 10000 | CC(=O)O[C@H](C(=O)Nc1nc2ccc(F)cn2c1-c1ccc(C(F)(F)F)cc1)C(C)(C)C [Compound 340, (S)-1-(6-fluoro-3-(4-(trifluoromethyl)phenyl)imidazo[1,2-a]pyridin-2-ylamino)-3,3-dimethyl-1-oxobutan-2-yl acetate]
27 | < 500 | CC(CC(=O)Nc1nc2ccc(F)cn2c1-c1ccc(F)c(F)c1)C(F)(F)F (centres unmarked) [Compound 209, N-(3-(3,4-difluorophenyl)-6-fluoroimidazo[1,2-a]pyridin-2-yl)-4,4,4-trifluoro-3-methylbutanamide]
28 | 3000 to 10000 | O=C(CCC(F)(F)F)Nc1nc2cc(C(F)(F)F)ccn2c1-c1ccccc1 [Compound 105, 4,4,4-trifluoro-N-(3-phenyl-7-(trifluoromethyl)imidazo[1,2-a]pyridin-2-yl)butanamide]

Same assay, conditions: FLIPR assay, SH-SY5Y native cell line; Table 5; read-out: SH-SY5Y EC50

Row | EC50 [nM] | SMILES
29 | 3000 to 10000 | Cc1c(NC(=O)CC(C)(C)C)nc2ccc(F)cn12 [Compound 423, N-(6-fluoro-3-methylimidazo[1,2-a]pyridin-2-yl)-3,3-dimethylbutanamide]

Same assay, conditions: SH-SY5Y native cell line, FLIPR assay (Table 3); read-out: SH-SY5Y EC50

Row | SMILES | EC50 [nM]
30 | Cc1ccnc(-c2c(NC(=O)CC(C)(C)C)nc3ccc(F)cn23)c1 [Compound 365, N-(6-fluoro-3-(4-methylpyridin-2-yl)imidazo[1,2-a]pyridin-2-yl)-3,3-dimethylbutanamide] | 500 to 3000
31 | Cc1ccc2nc(NC(=O)CC(C)C(F)(F)F)c(-c3cc(C(F)(F)F)ccn3)n2n1 (centres unmarked) [Compound 396, 4,4,4-trifluoro-3-methyl-N-(6-methyl-3-(4-(trifluoromethyl)pyridin-2-yl)imidazo[1,2-b]pyridazin-2-yl)butanamide] | 3000 to 10000

The next lines start with the values.

Row | EC50 [nM] | SMILES
32 | 3000 to 10000 | Cc1ccc2nc(NC(=O)Cc3ccc(F)cc3)c(-c3nccs3)n2n1 [Compound 390, 2-(4-fluorophenyl)-N-(6-methyl-3-(thiazol-2-yl)imidazo[1,2-b]pyridazin-2-yl)acetamide]
33 | 500 to 3000 | CC(C)(C)CCC(=O)Nc1nc2ccc(F)cn2c1-c1nc2ccccc2s1 [Compound 372, N-(3-(benzo[d]thiazol-2-yl)-6-fluoroimidazo[1,2-a]pyridin-2-yl)-4,4-dimethylpentanamide]
34 | 500 to 3000 | O=C(CC(F)(F)F)Nc1nc2ccc(F)cn2c1-c1nc2ccccc2s1 [Compound 381, N-(3-(benzo[d]thiazol-2-yl)-6-fluoroimidazo[1,2-a]pyridin-2-yl)-3,3,3-trifluoropropanamide]
35 | < 500 | O=C(Cc1ccc(F)cc1)Nc1nc2ccccn2c1-c1cc(C(F)(F)F)ccn1 [Compound 403, 2-(4-fluorophenyl)-N-(3-(4-(trifluoromethyl)pyridin-2-yl)imidazo[1,2-a]pyridin-2-yl)acetamide]

Same assay, conditions: SH-SY5Y native cell line, FLIPR assay (Table 6); read-out: SH-SY5Y EC50

Row | EC50 [nM] | SMILES
36 | < 500 | CC(C)(C)Cc1c(NC(=O)CC(C)(C)C(F)(F)F)nc2ccc(C(F)(F)F)cn12 [Compound 440, 4,4,4-trifluoro-3,3-dimethyl-N-(3-neopentyl-6-(trifluoromethyl)imidazo[1,2-a]pyridin-2-yl)butanamide]
37 | < 500 | CC(C)CCc1c(NC(=O)CC(C)(C)C(F)(F)F)nc2ccc(C(F)(F)F)cn12 [Compound 443, 4,4,4-trifluoro-N-(3-isopentyl-6-(trifluoromethyl)imidazo[1,2-a]pyridin-2-yl)-3,3-dimethylbutanamide]

Same assay, conditions: read-out: SH-SY5Y_EC50

Row | EC50 [nM] | SMILES
38 | 2130 | O=C(CC(F)(F)F)Nc1nc2ccc(F)cn2c1-c1nc2ccccc2s1 [Compound 381, N-(3-(benzo[d]thiazol-2-yl)-6-fluoroimidazo[1,2-a]pyridin-2-yl)-3,3,3-trifluoropropanamide]
